Source: US10918768B2, “Human skin equivalents expressing exogenous polypeptides” (Stratatech Corporation, priority 2003, dated 2021)

System: Staphylococcus carnosus
Test: antimicrobial activity assay (viable bacteria, CFU/ml)
Type: cell-based
Details: synthetic peptide standard curve; 37° C. for 1.5 hr
Method: The antimicrobial activity assay employed Escherichia coli and Staphylococcus carnosus and is a modification of the protocol described by Porter and coworkers (Porter, E. M., et al., Infect Immun, 1997. 65(6): p. 2396-401). Briefly, gram-positive or gram-negative bacteria are grown overnight. The following day the test organisms are subcultured for 2.5 hr and working dilutions of 10^4 bacteria/ml for Escherichia coli or 10^5 bacteria/ml of Staphylococcus carnosus in 10 mM sodium phosphate (pH 7.4)-1% TSB are created. All the reactions mix 50 μl of experimental reagent (lysis, supernatants or purified protein) with 50 μl of bacterial suspension. These reactions are then incubated at 37° C. for 1.5 hr. The reactions are diluted 100-fold in 10 mM sodium phosphate (pH 7.4)-1% TSB and plated on TSB plates using a spiral plater (Spiral Biotech, Norwood, Mass.). The plates are then incubated for 12 to 16 hr at 37° C. Colonies on these plates are counted and the number of viable bacteria is determined and expressed as colony forming units per milliliter (CFU/ml).
This example describes the development of an assay to detect LL-37 antimicrobial activity. […] A standard curve for the antimicrobial activity of LL-37 was determined for gram-positive bacteria, S. carnosus using this synthetic peptide.

Question: CC[C@H](C)[C@H](NC(=O)[C@H](CCCCN)NC(=O)[C@H](CCC(=O)O)NC(=O)[C@H](CCCCN)NC(=O)[C@H](CO)NC(=O)[C@H](CCCCN)NC(=O)[C@H](CCCNC(=N)N)NC(=O)[C@H](Cc1ccccc1)NC(=O)[C@H](Cc1ccccc1)NC(=O)[C@H](CC(=O)O)NC(=O)CNC(=O)[C@H](CC(C)C)NC(=O)[C@@H](N)CC(C)C)C(=O)NCC(=O)N[C@@H](CCCCN)C(=O)N[C@@H](CCC(=O)O)C(=O)N[C@@H](Cc1ccccc1)C(=O)N[C@@H](CCCCN)C(=O)N[C@@H](CCCNC(=N)N)C(=O)N[C@H](C(=O)N[C@H](C(=O)N[C@@H](CCC(N)=O)C(=O)N[C@@H](CCCNC(=N)N)C(=O)N[C@H](C(=O)N[C@@H](CCCCN)C(=O)N[C@@H](CC(=O)O)C(=O)N[C@@H](Cc1ccccc1)C(=O)N[C@@H](CC(C)C)C(=O)N[C@@H](CCCNC(=N)N)C(=O)N[C@@H](CC(N)=O)C(=O)N[C@@H](CC(C)C)C(=O)N[C@H](C(=O)N1CCC[C@H]1C(=O)N[C@@H](CCCNC(=N)N)C(=O)N[C@H](C(=O)N[C@@H](CCC(=O)O)C(=O)N[C@@H](CO)C(=O)O)[C@@H](C)O)C(C)C)[C@@H](C)CC)C(C)C)[C@@H](C)CC [LL-37] was tested. Which “concentration necessary to kill 50% (LC50) of S. carnosus” value did it give?
Answer: The value was 0.9 µg/mL.
